According to EP0160546A2, “Cephalosporin compounds, and their production, and medicaments containing them” (YAMANOUCHI PHARMACEUTICAL CO. LTD., priority 1984, dated 1985):
In brackets after ≈: the same amount, converted by molar mass. Like-named read-outs stand apart in the source and are kept apart here.

Assays:
[1] = system: Ps. aeruginosa NCTC 10490; test: Antibacterial activity (minimum effective inhibitory concentration); assay type: cell-based; settings: Pseudomonas aeruginosa, NCTC10490, read-out: minimum effective inhibitory concentrations
From the text: (§1) Antibacterial activities (minimum effective inhbitory concentrations) of compounds of formula I (taken from the following Examples) are shown in the following Table.

[2] = system: Kleb. pneumoniae ATCC 10031; test: as above; assay type: cell-based; settings: Klebsiella pneumoniae, ATCC10031, read-out: minimum effective inhibitory concentrations
From the text: as §1

E. coli NIHJ = test: as above; assay type: cell-based; settings: Escherichia coli, read-out: minimum effective inhibitory concentrations
From the text: as §1

[3] = system: Staph. epidermidis IID 866; test: as above; assay type: cell-based; settings: Staphylococcus epidermidis, IID866, read-out: minimum effective inhibitory concentrations
From the text: as §1

Serr. marcescense NY-10 = test: as above; assay type: cell-based; settings: read-out: minimum effective inhibitory concentrations
From the text: as §1

Solubility in water = assay type: physicochemical

| MIC [1] [µg/mL] | MIC [2] [µg/mL] | MIC (E. coli NIHJ; E. coli NIHJ) [µg/mL] | MIC [3] [µg/mL] | MIC (Serr. marcescense NY-10; Serr. marcescense NY-10) [µg/mL] | solubility (Solubility in water) [mg/mL] | SMILES | MIC (E. coli NIHJ) [µg/mL] | MIC (Serr. marcescense NY-10) [µg/mL] |
| --- | --- | --- | --- | --- | --- | --- | --- | --- |
| 0.39 (≈ 0.676 µM) | < 0.2 | < 0.2 | 1.56 (≈ 2.71 µM) | < 0.2 | – | CC(C)(ON=C(C(=O)NC1C(=O)N2C(C(=O)[O-])=C(C[n+]3cc(N)cc(N)c3)CSC12)c1csc(N)n1)C(=O)O (stereo not drawn) [Example 2, (Z)-7-[λ-(2-amino-4 thiazolyl)-λ-(1-carboxy-1-methylethoxyimino)acetamido]--3-(3,5-diamino-1-pyridiniomethyl)-Δ^3-cephem-4-carboxylate] | – | – |
| 1.56 (≈ 3.09 µM) | < 0.2 | < 0.2 | 0.2 (≈ 0.396 µM) | < 0.2 | – | CON=C(C(=O)NC1C(=O)N2C(C(=O)[O-])=C(C[n+]3ccc(N)c(N)c3)CSC12)c1csc(N)n1 (stereo not drawn) [Example 3, (Z)-7-[λ-(2-amino-4-thiazolyl)-λ-(methoxyimino)acetamido]-3-(3,4-diamino-1-pyridiniomethyl)-Δ^3-cephem-4-carboxylate] | – | – |
| 1.56 (≈ 3 µM) | < 0.2 | < 0.2 | 0.2 (≈ 0.385 µM) | < 0.2 | > 230 | CO/N=C(\C(=O)N[C@@H]1C(=O)N2C(C(=O)[O-])=C(C[n+]3ccc(OC)c(N)c3)CS[C@H]12)c1csc(N)n1 [Example 5, (Z)-7-[α-(2-amino-4-thiazolyl)-α-methoxyiminoacetamido,]-3-(3-amino-4-methoxypyridiniomethyl)-Δ^3-cephem-4-carboxylate] | – | – |
| 1.56 (≈ 2.69 µM) | < 0.2 | < 0.2 | 0.78 (≈ 1.35 µM) | < 0.2 | – | CO/N=C(\C(=O)N[C@@H]1C(=O)N2C(C(=O)[O-])=C(C[n+]3ccc(OCC(O)CO)c(N)c3)CS[C@H]12)c1csc(N)n1 (stereo partly drawn) [Example 6, (Z ) -7-[α-(2-amino-4-thiazolyl)-α-methoxyiminoacetamido]-3-[3-amino-4-(2,3-dihydroxypropyloxy)pyridiniomethyl]-Δ^3-cephem-4-carboxylate] | – | – |
| 1.56 (≈ 3.1 µM) | < 0.2 | < 0.2 | 0.2 (≈ 0.397 µM) | < 0.2 | – | CO/N=C(\C(=O)N[C@@H]1C(=O)N2C(C(=O)[O-])=C(C[n+]3ccc(C)c(N)c3)CS[C@H]12)c1csc(N)n1 [Example 9, (Z)-1-[α-(2-amino-4-thiazolyl)-α-methoxyiminoacet--amido]-3-(3-amino-4-methylpyridiniomethyl)-Δ^3-cephem-4-carboxylic acid] | – | – |
| 0.39 (≈ 0.678 µM) | < 0.2 | < 0.2 | 6.25 (≈ 10.9 µM) | 0.2 (≈ 0.347 µM) | – | CON=C(C(=O)NC1C(=O)N2C(C(=O)[O-])=C(C[n+]3ccc4c(c3)N(OC)C(=O)CO4)CSC12)c1csc(N)n1 (stereo not drawn) [Example 10] | – | – |
| 1.56 (≈ 2.86 µM) | < 0.2 | < 0.2 | 0.78 (≈ 1.43 µM) | < 0.2 | – | CON=C(C(=O)NC1C(=O)N2C(C(=O)[O-])=C(C[n+]3ccc4c(c3)NC(=O)CO4)CSC12)c1csc(N)n1 (stereo not drawn) [Example 11, (Z)-7-[α-(2-amino-4-thiazolyl)-α-methoxyimino-acetamido]-3-[[6-(3-oxo-3,4-dihydro-2H-pyrido[4,3-b]-1,4-oxazinio)]methyl -Δ^3-cephem-4-carboxylate] | – | – |
| 1.56 (≈ 2.78 µM) | < 0.2 | < 0.2 | 1.56 (≈ 2.78 µM) | < 0.2 | – | CON=C(C(=O)NC1C(=O)N2C(C(=O)[O-])=C(C[n+]3ccc4c(c3)N(O)C(=O)CO4)CSC12)c1csc(N)n1 (stereo not drawn) [Example 12, (Z)-7-[α-(2-amino-4-thiazolyl)-α-methoxyiminoacetamido]-3-[[6-(4-hydroxy-3-oxo-3,4-dihydro-2H-pyrido[4,3-b]-1,4-oxazinio)]methyl]-Δ^3-cephem-4-carboxylate] | – | – |
| 0.78 (≈ 1.47 µM) | < 0.2 | < 0.2 | 0.39 (≈ 0.734 µM) | < 0.2 | – | CON=C(C(=O)NC1C(=O)N2C(C(=O)[O-])=C(C[n+]3ccc4c(c3)NCCO4)CSC12)c1csc(N)n1 (stereo not drawn) [Example 13, (Z)-7-[α-(2-amino-4-thiazolyl) -α-methoxyiminoacetamido]-3-[[6-(3,4-dihydro-2H-pyrido[4,3-b1-1,4-oxazinio)]methyl]-Δ^3-cephem-4-carboxylate] | – | – |

| SMILES | MIC [1] [µg/mL] | MIC [2] [µg/mL] | MIC (E. coli NIHJ; E. coli NIHJ) [µg/mL] | MIC [3] [µg/mL] | MIC (Serr. marcescense NY-10; Serr. marcescense NY-10) [µg/mL] | solubility (Solubility in water) [mg/mL] | MIC (E. coli NIHJ) [µg/mL] | MIC (Serr. marcescense NY-10) [µg/mL] |
| --- | --- | --- | --- | --- | --- | --- | --- | --- |
| CC(C)(O/N=C(\C(=O)N[C@@H]1C(=O)N2C(C(=O)[O-])=C(C[n+]3ccccc3)CS[C@H]12)c1csc(N)n1)C(=O)O [cefta-zidime, reference compound] | 0.78 (≈ 1.43 µM) | < 0.2 | – | 3.13 (≈ 5.73 µM) | – | – | < 0.2 | < 0.2 |
